Measurements: patent publication US12545637B2, “Extrahepatic targeted cationic lipid compound with high efficiency and low toxicity and its composition” (BEIJING YOUCARE KECHUANG PHARMACEUTICAL TECHNOLOGY CO., LTD., priority 2023, dated 2026)

Assays:
293T cells [1] = assay: Fluorescent detection of Fluc-mRNA (cell transfection efficiency of LNP formulations); assay type: cell-based; details: for Relative light unit (RLU): LNP with 0.3 μg Fluc-mRNA, 96-well plate, 24 hours
Experimental: (§1) Seeding plate: The cells in the culture dish were digested and counted. Cells were spread in a 96-well plate at 10,000 cells per well and in a 12-well plate at 150,000 cells per well. Cells were cultured overnight until the cells adhered to the wall.
The corresponding reagents were added according to the instructions of the Gaussia Luciferase Assay Kit, and the fluorescence expression intensity of each well was detected by an IVIS fluorescence detection system.

[2] = Detection of encapsulation efficiency, drug loading concentration and total RNA concentration (RiboGreen); assay type: physicochemical; details: LNP formulation prepared from the cationic lipid
Excerpt: Encapsulation efficiency is a key quality attribute of liposomes, which refers to the percentage of drug content encapsulated in the lipid bimolecular layer accounting for the total drug dose and can reflect the degree of drug encapsulation in liposomes. The Chinese Pharmacopoeia stipulates that the encapsulation efficiency should generally not be less than 80%.
The drug loading amount is the ratio of the amount of drug in the liposome to the total amount of drug and carrier in the liposome. The drug loading amount directly affects the clinical application dose of the drug. […] The drug loading concentration is proportional to the drug loading amount, and the relative proportion of the drug loading concentrations can represent the relative proportion of the drug loading amounts. The relative ratio of the total RNA concentrations may represent the relative ratio of the amounts of mRNA carried by the LNP formulations.
1×TE buffer, 0.1% Triton X-100 buffer, RiboGreen reagent (1: 200) and mRNA standard stock solution were prepared.
An appropriate amount of the sample was added to an appropriate amount of 1×TE buffer, and the mixture was diluted to obtain a solution containing approximately […] sample per 1 mL. Then the sample was added to a 96-well plate, and 50 μL of the diluted test sample or the mRNA standard stock solution was added to each well, then 1×TE buffer and 0.1% Triton X-100 buffer were added. The sample was incubated at 37° C. for 10 minutes, and 100 μL RiboGreen reagent (1:200) was added to each well of the test sample in the 96-well plate. The sample was centrifugated, and the data were read using a microplate reader, and processed.

293T cells [3] = assay: Cell survival rate assay (CCK-8); assay type: cell-based; details: LNP with 1.5 μg Fluc-mRNA, 24 hours, CCK-8
Experimental: Cell recovery and passage: 293T cells were recovered, cultured in a culture dish, and passaged to the required number of cells.
as §1
An LNP formulation containing 1.5 μg of Fluc-mRNA (prepared according to example 4, the carrier components of the LNP formulation were cationic lipid, neutral lipid, structured lipid and polymer-conjugated lipid at a molar ratio of 49:10:39.5:1.5, wherein the cationic lipid was listed in Table 1) and the formulation of Lipofectamine 3000 were added to the cell culture medium of a 96-well plate, and further cultivated for 24 hours. 10 μL of CCK-8 solution was then added to each well, and the culture plate was incubated in an incubator for 1 hour. The absorbance at 450 nm was measured by a microplate reader.

[4] = Particle size and polydispersity index (PDI) of lipid nanoparticles by dynamic light scattering; assay type: physicochemical; details: for PDI: LNP formulation of the cationic lipid, 25° C.; for Particle size: LNP formulation of the cationic lipid/DSPC/cholesterol/DMG-PEG2000 49:10:39.5:1.5, 25° C.
Experimental: The particle size and polydispersity index (PDI) were determined by dynamic light scattering using Malvern laser particle size analyzer.
10 μL of the liposome solution was weighed, diluted to 1 mL with RNase-free deionized water, and added to the sample pool. Each sample was measured in triplicate. The measurement conditions were: […] scattering angle, and 25° C.

female BALB/C mice = assay: In vivo imaging in mice of Fluc-mRNA LNP formulations (mRNA expression and duration); details: Fluc-mRNA LNP intramuscular; for average radiation intensity, 6 h: 6 h after administration; for average radiation intensity, 24 h: 24 h after administration; for average radiation intensity, 48 h: 48 h after administration; for average radiation intensity, 7 d: 7 d after administration
Experimental: The LNP formulation (prepared according to Example 4) containing […] Fluc-mRNA was injected intramuscularly into female BALB/C mice aged 4-6 weeks and weighed 17-19 g, and the mice were intraperitoneally injected with fluorescent imaging substrate at specific time points after administration (6h, 24 h, 48h and 7d), where the mice were allowed to free move for 5 minutes, and then the average radiation intensity (corresponding to fluorescence expression intensity) of the protein expression of the mRNA carried by the LNP in the mice was detected by the IVIS Spectrum small animal in vivo imaging system.

Row | SMILES | Relative light unit (RLU) (293T cells [1]) | Drug loading concentration [2] [µg/mL] | Encapsulation efficiency [2] [%] | Total RNA concentration [2] [µg/mL] | Cell survival rate (293T cells [3]) [%] | PDI [4] [%] | Particle size [4] [nm] | average radiation intensity, 6 h (female BALB/C mice) | average radiation intensity, 24 h (female BALB/C mice) | average radiation intensity, 48 h (female BALB/C mice) | average radiation intensity, 7 d (female BALB/C mice) | cell transfection efficiency, times that of YK-417 (293T cells [1]; ratio vs YK-417)
1 | CCCCCCCCCCCOC(=O)CCCN(CCO)CCN(CCO)CCCCCC(=O)OCC(CCCCCCCC)CCCCCCCC [YK-409, 2-octyldecyl 6-((2-hydroxyethyl)(2-((2-hydroxyethyl)(4-(undecyloxy)-4-oxobutyl)amino)ethyl)amino) hexanoate] | 669807 | 34.14 | 86.9 | 39.27 | 46.11 | 13.7 | 155 |  |  |  |  | 
2 | CCCCCCCCCCOC(=O)CCCCCN(CCO)CCN(CCO)CCCCCC(=O)OCC(CCCCCCCC)CCCCCCCC [YK-410, 2-octyldecyl 6-((2-hydroxyethyl)(2-((2-hydroxyethyl)(6-(decyloxy)-6-oxohexyl)amino)ethyl)amino)hexanoate] | 407868 | 29.48 | 88.2 | 33.42 | 44.92 | 15.5 | 163 |  |  |  |  | 
3 | CCCCCCCCCCCOC(=O)CCCN(CCO)CCN(CCO)CCCCCCOC(=O)CC(CCCCCC)CCCCCC [YK-406, 6-((2-hydroxyethyl) (2-((2-hydroxyethyl)(4-(undecyloxy)-4-oxobutyl)amino)ethyl)amino)hexyl 3-hexylnonanoate] | 78251 | 30.19 | 87.8 | 34.41 | 24.96 | 15.8 | 154 |  |  |  |  | 
4 | CCCCCCCCC(CCCCCCCC)OC(=O)CCCCCN(CCO)CCCCN(CCO)CCCCCC(=O)OC(CCCCCCCC)CCCCCCCC [YK-420, di(heptadecan-9-yl) 6,6′-(butane-1,4-diylbis((2-hydroxyethyl)azanediyl))dihexanoate] | 4019330 | 35.87 | 94.9 | 37.81 | 35.59 | 14.2 | 169 |  |  |  |  | 
5 | CCCCCCCCC(CCCCCCCC)C(=O)OCCCCCCN(CCO)CCCN(CCO)CCCCCCOC(=O)C(CCCCCCCC)CCCCCCCC [YK-412, (propane-1,3-diyl-bis((2-hydroxyethyl)azanediyl))-bis(hexane-6,1-diyl)bis(2-octyldecanoate)] | 3371352 |  |  |  | 54.14 |  |  |  |  |  |  | 
6 | CCCCCCCCCCOC(=O)CCCN(CCO)CCN(CCO)CCCC(=O)OC(CCCCCCCC)CCCCCCCC [YK-408, heptadecan-9-yl 4-((2-hydroxyethyl)(2-((2-hydroxyethyl)(4-(decyloxy)-4-oxobutyl)amino)ethyl)amino)butyrate] | 1474136 | 45.42 | 86.6 | 52.46 | 42.31 | 16.2 | 136 |  |  |  |  | 
7 | CCCCCCCCCCOC(=O)CCCN(CCO)CCCN(CCO)CCCC(=O)OC(CCCCCCCC)CCCCCCCC [YK-414, decyl 4-(3-((4-(heptadecan-9-yloxy)-4-oxobutyl)(2-hydroxyethyl)amino)propyl)(2-hydroxyethyl)aminobutyrate] | 444089 |  |  |  | 28.75 |  |  |  |  |  |  | 
8 | CCCCCC(CC)OC(=O)CCCCCCCCN(CCO)CCN(CCO)CCCCCCCCC(=O)OC(CC)CCCCC (stereo not shown) [YK-404, di(octan-3-yl) 9, 9′-(ethane-1,2-diyl-bis((2-hydroxyethyl)azanediyl))dinonanoate] | 7543 | 28.45 | 75.3 | 33.41 | 42.12 | 4.2 | 142 |  |  |  |  | 
9 | CCCCCCCCCCOC(=O)CCCCCN(CCO)CCCN(CCO)CCCCCC(=O)OCCC(CCCCCC)CCCCCC [YK-417] | 117287 | 25.02 | 74.8 | 33.46 | 21.34 | 17.7 | 128 | 60480 | 19987 | 7045 | 2284 | 
10 | CCCCCCCCCCOC(=O)CCCN(CCO)CCN(CCO)CCCCCC(=O)OC(CCCCCCCC)CCCCCCCC [YK-405, Heptadecan-9-yl 6-((2-hydroxyethyl)(2-((2-hydroxyethyl)(4-(decyloxy)-4-oxobutyl)amino)ethyl)amino)hexanoate] | 3197780 | 33.42 | 83.2 | 40.19 | 41.86 | 4.3 | 141 |  |  |  |  | 
11 | CCCCCCCCCCCOC(=O)CCCN(CCO)CCCN(CCO)CCCCCC(=O)OCC(CCCCCCCC)CCCCCCCC [YK-415, 2-octyldecyl 6-((2-hydroxyethyl)(3-((2-hydroxyethyl)(4-oxo-4-(undecyloxy)butyl)amino)propyl)amino)hexanoate] | 298021 | 31.08 | 87.8 | 35.39 | 61.16 | 15.6 | 178 | 117840 | 64501 | 15790 | 4041 | 
12 | CCCCCCCCCCCOC(=O)CCCN(CCO)CCCN(CCO)CCCCCC(=O)OC(CCCCCCCC)CCCCCCCC [YK-413, heptadecan-9-yl 6-((2-hydroxyethyl)(3-((2-hydroxyethyl)(4-oxo-4-(undecyloxy)butyl)amino)propyl)amino)hexanoate] | 1377048 | 23.63 | 83.3 | 28.36 | 47.20 | 16.1 | 160 |  |  |  |  | 
13 | CCCCCCCCCCOC(=O)CCCN(CCO)CCCCN(CCO)CCCCCC(=O)OC(CCCCCCCC)CCCCCCCC [YK-421, heptadecan-9-yl 6-((4-((4-(decyloxy)-4-oxobutyl)(2-hydroxyethyl)amino)butyl)(2-hydroxyethyl)amino)hexanoate] | 466616 | 33.93 | 83.1 | 40.83 | 35.71 | 17.4 | 148 |  |  |  |  | 
14 | CCCCCCCCCCOC(=O)CCCCCN(CCO)CCCN(CCO)CCCCCC(=O)OCC(CCCCCCCC)CCCCCCCC [YK-416, decyl 6-((2-hydroxyethyl)(3-((2-hydroxyethyl)(6-((2-octyldecyl)oxy)-6-oxohexyl)amino)propyl)amino)hexanoate] | 3975264 | 25.16 | 79.6 | 31.62 | 40.97 | 19.7 | 190 |  |  |  |  | 34
